Reference: US8377691B2 (priority 2006, dated 2013)
“Also recorded” adds a separate entry of the source.

How the values were obtained:
Type in all cases: biochemical
[1] = target: A/M2 PR8/34 (Influenza A virus, UniProt P06821)
[2] = target: B/M2 Lee40 (Influenza B virus, UniProt P03493)
[3] = target: A/M2 Udorn72 with a mutation (S31N) (Influenza A virus, UniProt P0DOF5, S31N)
[4] = target: A/M2 PR8/34 (V27S31) (Influenza A virus, UniProt P06821, A27V/N31S)

Compound | H+ transport across VLP membranes (fluorescence) [1] | H+ transport across VLP membranes (fluorescence) [2] | H+ transport across VLP membranes (fluorescence) [3] | H+ translocation across VLP membranes (fluorescence) [4]
NC12CC3CC(CC(C3)C1)C2 [amantadine] | exerted no effect; also recorded: in the presence or absence of amantadine | exerted no effect | resistant to inhibition | in the absence, but not in the presence of 100 μM of the drug
CC(N)C12CC3CC(CC(C3)C1)C2 (stereo not drawn) [rimantadine] | exerted no effect | exerted no effect |  | 
